“Also recorded” adds a separate entry of the source. Marks after values point to notes of the source that are not given here.
Assays:
human recombinant COX-2 = target: T1, human recombinant COX-2 (Homo sapiens, UniProt P35354); experiment: In vitro COX-2 inhibition, enzyme immunoassay; format: biochemical; conditions: for COX-2 S.I. (COX-1/COX-2): IC50 (COX-1)/IC50 (COX-2)
T1 sequence (P35354 18-604): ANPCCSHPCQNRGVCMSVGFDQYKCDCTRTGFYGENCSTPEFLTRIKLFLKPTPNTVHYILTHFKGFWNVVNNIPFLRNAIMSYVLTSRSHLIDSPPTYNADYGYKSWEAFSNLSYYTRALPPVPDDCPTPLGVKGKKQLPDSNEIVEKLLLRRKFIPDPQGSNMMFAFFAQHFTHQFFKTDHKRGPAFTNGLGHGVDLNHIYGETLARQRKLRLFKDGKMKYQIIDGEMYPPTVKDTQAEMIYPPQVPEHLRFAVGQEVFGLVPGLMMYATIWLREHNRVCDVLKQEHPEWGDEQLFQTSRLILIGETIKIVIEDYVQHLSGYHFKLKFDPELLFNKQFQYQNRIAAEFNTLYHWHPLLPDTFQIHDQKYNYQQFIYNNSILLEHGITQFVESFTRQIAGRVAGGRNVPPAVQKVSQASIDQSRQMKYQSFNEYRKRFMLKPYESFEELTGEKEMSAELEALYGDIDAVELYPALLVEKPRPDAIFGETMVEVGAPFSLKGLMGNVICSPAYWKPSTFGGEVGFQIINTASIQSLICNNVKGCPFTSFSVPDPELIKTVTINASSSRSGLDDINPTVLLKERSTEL

PDE5 = PDE5 (Homo sapiens, UniProt O76074); experiment: Phosphodiesterase 5 enzyme activity assay; format: biochemical; conditions: for inhibition at 10 µM: read-out: PDE5 activity, decrease (↓, inhibition); for effect on PDE5 activity (in words): 10 μM; for PDE5 activity, increase (↑, enhancement): 10 μM compound
[1] = format: in vivo, White New Zealand rabbits; conditions: normotensive rabbits; for MABP: mean arterial blood pressure, i.v. (jugular vein), means ± SE, n = 4
ovine COX-1 = target: T2, ovine COX-1 (Ovis aries, UniProt P05979); experiment: In vitro COX-1 inhibition, enzyme immunoassay; format: biochemical
T2 sequence (P05979 25-600): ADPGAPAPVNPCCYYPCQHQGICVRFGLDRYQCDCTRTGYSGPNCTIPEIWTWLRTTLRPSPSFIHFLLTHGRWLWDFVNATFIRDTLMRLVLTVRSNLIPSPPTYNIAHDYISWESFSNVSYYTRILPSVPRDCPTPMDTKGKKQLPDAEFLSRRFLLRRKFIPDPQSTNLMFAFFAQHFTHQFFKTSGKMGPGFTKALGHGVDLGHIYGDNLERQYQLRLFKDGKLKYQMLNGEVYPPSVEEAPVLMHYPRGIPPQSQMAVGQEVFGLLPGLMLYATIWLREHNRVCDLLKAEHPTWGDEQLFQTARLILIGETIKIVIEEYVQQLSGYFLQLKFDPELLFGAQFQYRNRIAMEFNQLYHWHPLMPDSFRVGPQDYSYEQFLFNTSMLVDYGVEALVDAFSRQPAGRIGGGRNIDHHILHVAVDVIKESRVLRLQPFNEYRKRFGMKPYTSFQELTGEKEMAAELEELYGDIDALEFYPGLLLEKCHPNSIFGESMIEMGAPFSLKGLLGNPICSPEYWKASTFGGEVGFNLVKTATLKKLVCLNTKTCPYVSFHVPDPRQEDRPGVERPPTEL

Structure (SMILES)	IC50 (human recombinant COX-2) [nM]	COX-2 S.I. (COX-1/COX-2) (human recombinant COX-2)	inhibition at 10 µM (PDE5) [%]	MABP [1]	MABP compared with control (in words) [1]	IC50 (ovine COX-1) [nM]	effect on PDE5 activity (in words) (PDE5)	PDE5 activity, increase (↑, enhancement) (PDE5) [%]	MABP compared with sildenafil (in words) [1]
CC(=O)C(=NO)C(=O)Nc1nccs1 [Compound 2, 2-(hydroxyimino)-3-oxo-N-(thiazol-2-yl)butanamide]	110	13.64	53	115^##	significantly higher	1500	–	–	–
CCOC(=O)c1c(C)[nH]c(C(=O)Nc2nccs2)c1C [Compound 5a, Ethyl 2,4-dimethyl-5-(thiazol-2-ylcarbamoyl)-1H-pyrrole-3-carboxylate]	100	16	–	108^##	significantly higher	1600	increased the PDE5 activity	222	–
CC(=O)c1c(C)[nH]c(C(=O)Nc2nccs2)c1C [Compound 5b, 4-Acetyl-3,5-dimethyl-N-(thiazol-2-yl)-1H-pyrrole-2-carboxamide]	240	5.4	–	98	higher than the control values in a nonsignificant manner	1300	very low activity	15	–
Cc1cc(O)n(-c2nccs2)n1 [Compound 7, 3-methyl-1-(thiazol-2-yl)-1H-pyrazol-5-ol]	630	10.06	75	81^#	significantly lower than that of the control	6340	–	–	insignificantly higher than the sildenafil one
CCOC(=O)CCC(=O)Nc1nccs1 [Compound 11, ethyl 4-oxo-4-(thiazol-2-ylamino)butanoate]	210	8.1	–	85^&	insignificantly lower than the control values	1700	very low activity	3.5	significantly higher than the sildenafil values
CC(=O)C(C(C)=O)C(=O)Nc1nccs1 [Compound 17, 2-acetyl-3-oxo-N-(thiazol-2-yl)butanamide]	90	15.56	–	87^&	insignificantly lower than the control values	1400	increased the PDE5 activity	371	significantly higher than the sildenafil values
C/C(=C/C(=O)Nc1nccs1)Nc1ccccc1 [Compound 23a, (Z)-3-(phenylamino)-N-(thiazol-2-yl)but-2-enamide]	710	8.87	100	108	without causing hypotension; also recorded: higher than the control values in a nonsignificant manner; also recorded: without a notable decrease in MABP	6300	–	–	–
COc1ccc(N/C(C)=C\C(=O)Nc2nccs2)cc1 [Compound 23b, (Z)-3-((4-methoxyphenyl)amino)-N-(thiazol-2-yl)but-2-en-amide]	560	10.25	100	110^##	significantly higher; also recorded: without a notable decrease in MABP	5740	increased the PDE5 activity; also recorded: very low activity	15	–
C/C(=C/C(=O)Nc1nccs1)Nc1ccc(Cl)cc1 [Compound 23c, (Z)-3-((4-chlorophenyl)amino)-N-(thiazol-2-yl)but-2-enamide]	610	10.38	100	100	without causing hypotension; also recorded: higher than the control values in a nonsignificant manner	6330	–	–	–
CCCc1nn(C)c2c(=O)[nH]c(-c3cc(S(=O)(=O)N4CCN(C)CC4)ccc3OCC)nc12 [Sildenafil, sildenafil, reference compound]	–	–	100	72.50 ± 2.9	–	–	–	–	–
